Results published in article PMC11056980 (Journal of medicinal chemistry, 2024).

Key:
in vitro [1] = conditions: human, microsomes, pH 7.4
SARS-CoV-2 strain BA.1 = type: cell-based
[2] = system: SARS-CoV-2 strain XBB.1.5; type: cell-based
SARS-CoV-2 M^Pro = SARS-CoV-2 M^Pro (Severe acute respiratory syndrome coronavirus 2, UniProt P0DTD1); type: biochemical; conditions: 20 nM M^Pro, 30 min preincubation, 10 μM Sub3
in vitro [3] = conditions: human

SMILES | IC50 (SARS-CoV-2 M^Pro) | also measured
C[C@@H](OC(C)(C)C)[C@H](NC(=O)OCc1cccc(OCCCCOc2cccc3c2C(=O)N(C2CCC(=O)NC2=O)C3=O)c1)C(=O)N[C@@H](CC1CCCCC1)C(=O)N[C@H](C=O)C[C@@H]1CCNC1=O (some centres unmarked) [MPD1] |  | CLint scaled (in vitro [1]): 149 ± 12.7 mL/min/kg
C[C@@H](OC(C)(C)C)[C@H](NC(=O)OCc1cccc(OCCCCCCOc2cccc3c2C(=O)N(C2CCC(=O)NC2=O)C3=O)c1)C(=O)N[C@@H](CC1CCCCC1)C(=O)N[C@H](C=O)C[C@@H]1CCNC1=O (some centres unmarked) [MPD2] |  | CLint scaled (in vitro [1]): 36.3 ± 2.51 mL/min/kg; CLint scaled at 1 h, 5 µM (in vitro [1]): 36.2 mL/min/kg; reduction of viral production (SARS-CoV-2 strain BA.1): 90%; reduction of viral production [2]: 90%
C[C@@H](OC(C)(C)C)[C@H](NC(=O)OCc1cccc(OCCCCCCCCOc2cccc3c2C(=O)N(C2CCC(=O)NC2=O)C3=O)c1)C(=O)N[C@@H](CC1CCCCC1)C(=O)N[C@H](C=O)C[C@@H]1CCNC1=O (some centres unmarked) [MPD3] |  | CLint scaled (in vitro [1]): 24.7 ± 0.5 mL/min/kg
C[C@@H](OC(C)(C)C)[C@H](NC(=O)OCc1cccc(OCCCCCCN(C)CCN(C)c2cccc3c2C(=O)N(C2CCC(=O)NC2=O)C3=O)c1)C(=O)N[C@@H](CC1CCCCC1)C(=O)N[C@H](C=O)C[C@@H]1CCNC1=O (some centres unmarked) [MPD4] | 36 nM | 
C[C@@H](OC(C)(C)C)[C@H](NC(=O)OCc1cn(CCOCCOCCOCCC(=O)Nc2cccc3c2C(=O)N(C2CCC(=O)NC2=O)C3=O)nn1)C(=O)N[C@@H](CC1CCCCC1)C(=O)N[C@H](C=O)C[C@@H]1CCNC1=O (some centres unmarked) [MPD5] | 36 nM | 
C[C@@H](OC(C)(C)C)[C@H](NC(=O)OCc1cn(CCOCCOCCOCCC(=O)N(C)CCN(C)c2cccc3c2C(=O)N(C2CCC(=O)NC2=O)C3=O)nn1)C(=O)N[C@@H](CC1CCCCC1)C(=O)N[C@H](C=O)C[C@@H]1CCNC1=O (some centres unmarked) [MPD6] | 111 nM | 
CC(C)(COCCCCCCOc1cccc2c1C(=O)N(C1CCC(=O)NC1=O)C2=O)NC(=O)N[C@H](C(=O)N1C[C@H]2[C@@H]([C@H]1C(=O)N[C@H](C=O)C[C@@H]1CCNC1=O)C2(C)C)C(C)(C)C (some centres unmarked) [MPD7] | 35 nM | 
CC(C)(CCOCCCCCCOc1cccc2c1C(=O)N(C1CCC(=O)NC1=O)C2=O)NC(=O)N[C@H](C(=O)N1C[C@H]2[C@@H]([C@H]1C(=O)N[C@H](C=O)C[C@@H]1CCNC1=O)C2(C)C)C(C)(C)C (some centres unmarked) [MPD8] | 24 nM | 
CN(CCN(C)c1cccc2c1C(=O)N(C1CCC(=O)NC1=O)C2=O)C(=O)CCC(C)(C)NC(=O)N[C@H](C(=O)N1C[C@H]2[C@@H]([C@H]1C(=O)N[C@H](C=O)C[C@@H]1CCNC1=O)C2(C)C)C(C)(C)C (some centres unmarked) [MPD9] | 31 nM | 
CC(C)(CCC(=O)NCCCC(=O)Nc1cccc2c1C(=O)N(C1CCC(=O)NC1=O)C2=O)NC(=O)N[C@H](C(=O)N1C[C@H]2[C@@H]([C@H]1C(=O)N[C@H](C=O)C[C@@H]1CCNC1=O)C2(C)C)C(C)(C)C (some centres unmarked) [MPD10] | 149 nM | 
C[C@@H](OC(C)(C)C)[C@H](NC(=O)OCc1ccccc1)C(=O)N[C@@H](CC1CCCCC1)C(=O)N[C@H](C=O)C[C@@H]1CCNC1=O [MPI8, reference compound] |  | CC50 at 48 h (in vitro [3]): 70000 nM
